Experiments:
estrogen receptor = target: T1, estrogen receptor (Homo sapiens, UniProt P03372); conditions: higher affinity; cited from earlier work
T1 sequence (P03372 1-595): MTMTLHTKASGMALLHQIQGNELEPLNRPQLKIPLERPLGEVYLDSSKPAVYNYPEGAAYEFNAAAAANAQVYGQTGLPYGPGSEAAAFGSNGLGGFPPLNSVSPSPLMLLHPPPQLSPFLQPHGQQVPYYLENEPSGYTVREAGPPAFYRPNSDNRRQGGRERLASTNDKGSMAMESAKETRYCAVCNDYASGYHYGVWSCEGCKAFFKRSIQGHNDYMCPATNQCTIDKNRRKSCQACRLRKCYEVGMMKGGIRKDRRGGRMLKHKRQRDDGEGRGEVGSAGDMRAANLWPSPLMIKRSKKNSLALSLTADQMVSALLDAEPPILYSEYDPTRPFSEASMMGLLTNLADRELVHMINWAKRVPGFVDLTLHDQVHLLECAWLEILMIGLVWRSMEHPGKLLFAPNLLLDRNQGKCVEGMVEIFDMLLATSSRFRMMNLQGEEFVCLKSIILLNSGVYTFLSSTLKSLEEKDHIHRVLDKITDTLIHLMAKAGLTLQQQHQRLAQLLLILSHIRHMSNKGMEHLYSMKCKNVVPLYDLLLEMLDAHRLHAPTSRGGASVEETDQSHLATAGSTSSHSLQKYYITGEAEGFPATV

yeast vacuoles = assay: Acidification of yeast vacuoles (acridine orange); assay type: biochemical, S. cerevisiae
Procedure: Vacuoles from S. cerevisiae were prepared from the protease deficient strain BJ2407 (Yeast Genetic Stock Center, University of California, Berkeley) by sequential floatation through 12% and 8% Ficoll 400 cushion as described previously [Roberts et al., Methods Enzymol, 194:644-661 (1991)] with the single modification that 1× protease inhibitor mix and 1 mM DTT was included in each step. […] Acidification was measured using AO as described above. For acidification in chloride-free solution, gluconate or glutamate was used in vesicle buffer instead of chloride.
ATP (1.5 mM) was added at 50 sec to initiate acidification and at 400 sec nigericin (1 μM) was added to dissipate pH gradients.

[1] = Procedure: The lumenal pH (pHL) of liposomes was assayed with pyranine, a fluorescent dye with a pKa~7.3 and a λex =405 nm in its acid form (-3 charge) and a λex =455 nm in its basic form (-4 charge). To prepare pyranine loaded liposomes, lipids (2 mg POPC, 1 mg cholesterol) supplied in chloroform suspension were dried in a round bottom flask under argon for 2 hours. The lipids were then resuspended in acidic or alkaline liposome buffer (300 mM KCl, 20 mM MES, 20 mM MOPS, 20 mM Tricine titrated with KOH to either pH 6.2 or pH 8.1) containing 0.5 mM pyranine. The suspension was incubated at room temperature overnight, then freeze-thawed 6×. Unilamellar liposomies were prepared by extrusion 3× through 2 stacked 100 nm Nucleopore (Corning/Costar Scientific, Acton, Mass.) polycarbonate filters in an Avestin (Vancouver, BC) extruder at 600 PSI.
The pyranine fluorescence was calibrated as a function of pH by diluting the liposomes with pH 6.2 into a weakly buffered solution of identical pH (300 mM KCl, 1 mM MES, 1 mM MOPS, 1 mM Tricine, pH 6.2), 1 μM nigericin to allow rapid equilibration with external pH and 5 mM DPX to quench external pyranine. The ratio of the fluorescence emission at λem =510 nm was monitored with dual excitation wavelengths of λex =405 nm and λex =455 nm. Sequential aliquots of 0.1 mM glycylglycine, pH 8.4 were added to increase pH (See FIG. 5). The fluorescence was measured after each addition and the pH was measured using a pH meter. […] The cahiration curve for the liposomes of lumenal pH 8.1 was generated identically except sequential aliquots of 0.1 mM K-MES pH 5.0 were added for titration and the curve was generated between pH 8.1 and pH 6.4.
To measure the rate of pH dissipation of liposomes with lumenal pH=6.2, the liposomes were diluted in weakly buffered solution of identical pH as described above, but with no nigericin. […] The external pH was shifted to pH 7.3 by addition of 5 mM glycylglycine pH 8.4 and the fluorescence ratio monitored. After 10 minutes, 1 μM nigericin was added to dissipate the remaining pH gradient. The pHL was calculated using the equation pH=x*log(λex =405 nm/[…])+c, were x and c are constants from the least square fit of the titration curve. To measure the rate of pH dissipation of liposomes with pHL =8.1, the identical procedure was followed except 5 mM K-MES pH 5.0 was added to shift the external pH to 6.9.
Liposomes were loaded with pyranine, a hydrophilic, non-permeable fluorescent pH indicator to assay proton permeability. […] Two steps were taken to ensure that only pHL was measured and to permit the discrimination between dissipation of pH gradient and the lysis or dye leakage from liposomes.

[2] = system: microsomes isolated from MCF-7/ADR cells; assay: In vitro acidification of MCF-7/ADR microsomes (acridine orange quenching); assay type: biochemical; conditions: for rate of dissipation of pre-existing pH gradient: added 10 minutes after ATP, tamoxifen 8 μM, bafilomycin A1 100 nM
Procedure: Cells were grown in Minimal Essential. Medium supplemented with 10% Fetal Bovine Serum to confluence in 10 level Cell Factories (Nunc, Naperville, Ill.), trypsinized, washed 3× with cold PBS and lysed with a Dounce homogenizer (Pestle A) in 0.25 M sucrose, 20 mM HEPES (pH 7.4), 1 mM DTT, 1 mM EDTA, and 1× protease inhibitor mix (1 μg/ml leupeptin, 1 μ/ml pepstatin A, 1 μg/ml aprotinin, and 16 μM PMSF mixed to 100× before use). The homogenate was centrifuged twice for 10 minutes at 3000×g to remove unbroken cells and nuclei. The supernatant was layered over 20 ml of 0.5 M sucrose (20 mM HEPES (pH 7.4), 1 mM DTT, 1 mM EDTA, 1× protease inhibitor mix) and 1 ml of 2 M sucrose and centrifuged for 1 hour at 100,000 g (Beckman Ti60 Rotor). Microsomes are collected at the 0.5M and 2M interface.
To monitor acidification of the total microsomal fraction, the quenching of AO fluorescence was monitored essentially as described previously [Barasch et al., Nature 352:70-73 (1991)]. Acidic vesicles accumulate AO to high concentrations resulting in the self quenching of the dye and a decrease of the overall fluorescence. Fluorescence was measured on an SLM Aminco-Bowman series 2 luminescence spectrometer with λex =488 nm and λem =530 nm Microsomes (80 μg protein) were suspended in 2.5 ml vesicle buffer (125 mM KCl, 5 mM MgCl2, 20 mM HEPES (pH 7.4), 1 mM DTT, 1 mM EDTA, 2 mM NaN3), with 6 μM AO (5 mM stock in H2 O) in a cuvet. […] After equilibration for 30 minutes at 25° C. 1 mM Tris-ATP was added to begin acidification (100 mM stock, titrated to pH 7.4 with 1 M Tris-base before use). Twenty minutes later, 2.5 μM of nigericin (10 mM stock in EtOH) was added to dissipate any ΔpH formation.
Acridine orange (AO) was used as a probe for lumenal acidification. As vesicles acidify, they accumulate AO to self-quenching concentrations, and deplete the extra-vesicular free AO, resulting in a decrease in total fluorescence. Acidification was initiated by the addition of ATP to a purified microsomal fraction in the absence of cytosol (FIG. 1A, at t=300 sec). […] Nigericin, a K^+ /H^+ exchanger that rapidly dissipates pH gradients, was added at the end of each reaction (t=1500 seconds).

[3] = Liposome chloride concentration (lucigenin); conditions: after addition of 50 mM KCl; tamoxifen 2, 4, 8 μM, valinomycin 1 μM

For `CC/C(=C(/c1ccc(OCCN(C)C)cc1)c1cccc(O)c1)c1ccccc1` [Droloxifene, 3-hydroxytamoxifen], the “binding affinity to the estrogen receptor relative to tamoxifen” value (estrogen receptor) is given as 10-60 fold.
For `Cl.N` [ammonium chloride], the “effect of addition to pre-acidified vacuoles” value (yeast vacuoles; added at 250 sec, tamoxifen 2 μM, ammonium 1 mM) was “step alkalinization”, the “concentration relative to tamoxifen for similar inhibition” value (yeast vacuoles; ammonium chloride 1 mM) was 1000 fold and the “inhibition of vacuole acidification” value (yeast vacuoles; pre-equilibrated, tamoxifen 2 μM or 8 μM, ammonium chloride 1 mM) was “slightly inhibited”. For the same compound, the “effect of addition on pHL without pre-existing pH gradient” value ([1]; pHL 6.2 = external pH, tamoxifen 2 μM, 8 μM, NH4Cl 5 mM) was “alkalinization of the lumen”.
With `CO/C1=C\C(C)=C\[C@@H](C)[C@@H](O)[C@@H](C)C/C(C)=C/C=C/[C@H](OC)[C@@H]([C@@H](C)[C@@H](O)[C@H](C)[C@@]2(O)C[C@@H](O)[C@H](C)[C@@H](C(C)C)O2)OC1=O` [bafilomycin A1, Bafilomycin A1] the acidification blocked ([2]; 10 nM (one tenth of 100 nM), pre-treatment, FIG. 1A) was 95% and the “rate of dissipation of pre-existing pH gradient” value [2] was “much slower rate”.
For `CC[C@@]1([C@@H]2O[C@@H]([C@H]3O[C@@](O)(CO)[C@H](C)C[C@@H]3C)C[C@@H]2C)CC[C@H]([C@]2(C)CC[C@]3(C[C@H](O)[C@@H](C)[C@@H]([C@@H](C)[C@@H](OC)[C@H](C)C(=O)O)O3)O2)O1` [monensin], the “rate of dissipation of pre-existing pH gradient” value [2] was “significantly faster than tamoxifen”.
For `CO[C@@H]1C[C@@H](C[C@H]2CC[C@H](C)[C@H]([C@@H](C)C(=O)O)O2)O[C@]2(O[C@](C)([C@H]3CC[C@@](C)([C@@H]4O[C@@H]([C@H]5O[C@@](O)(CO)[C@H](C)C[C@@H]5C)C[C@@H]4C)O3)C[C@H]2C)[C@@H]1C` [nigericin], the “rate of dissipation of pre-existing pH gradient” value [2] was “significantly faster than tamoxifen”.
In the case of `CC(C)[C@@H]1NC(=O)[C@H](C)OC(=O)[C@@H](C(C)C)NC(=O)[C@@H](C(C)C)OC(=O)[C@H](C(C)C)NC(=O)[C@H](C)OC(=O)[C@@H](C(C)C)NC(=O)[C@@H](C(C)C)OC(=O)[C@H](C(C)C)NC(=O)[C@H](C)OC(=O)[C@@H](C(C)C)NC(=O)[C@@H](C(C)C)OC1=O` [valinomycin], the “effect on pHL after shift of external pH” value ([1]; pHL 6.2, external pH shifted to 7.3, tamoxifen 0.5 or 2 μM, NH4Cl 1 mM, FCCP 1 μM, valinomycin 1 μM) is reported as “faster dissipation of the pH gradient than FCCP”, the “rate of pH gradient dissipation, alkaline lumen” value ([1]; pHL 8.1, external pH shifted to 6.9, tamoxifen 0.5-8 μM, NH4Cl 5 mM, FCCP 1 μM, valinomycin 1 μM) is reported as “greater dissipation of pH gradient than FCCP” and the “rate of chloride influx into liposomes” value [3] is reported as “increased the rate of chloride equilibration”.

— patent US6204067A, “Methods of identifying modulators of the estrogen receptor” (Board of Trustees Operating Michigan State University, priority 1999, dated 2001)
